This passage reports IC50, Dmax and DC50 results from patent US12528814B2, “Bifunctional degraders of interleukin-1 receptor-associated kinases and therapeutic use thereof” (NURIX THERAPEUTICS, INC., priority 2020, dated 2026).

Assay [1] has as its target T1, IRAK4 (Homo sapiens (Human), UniProt Q9NWZ3). The experiment in a line: IRAK4 Biochemical HTRF Kinase Assay. The settings on record: read-out: IRAK4 HTRF biochemical: IC50. How it is done: IRAK4 Biochemical HTRF Kinase Assay
The binding capacities of certain bifunctional compounds of Formula (I) were determined using the CisBio HTRF KinEASE STK S1 Kit (#62ST1PEB, contains 5× Kinase buffer, 1× Detection Buffer, anti-phospho-serine/threonine-cryptate, Streptavidin-XL665, and STK-S1), which measures the phosphorylation of a biotinylated peptide substrate by IRAK4, according to the manufacturer's protocol. […] 2 μl of a reaction solution containing 5 μM STK-S1, 10 mM ATP, and 10 mM MgCl2 were added to each well to a final volume of 10 μl. Assay controls include wells containing kinase with no compound (DMSO only) and wells containing no kinase and no compound (DMSO only). The reactions were allowed to proceed at ambient temperature for 90 minutes. […] The plates were incubated for 60 minutes at ambient temperature and then read on an Envision Multilabel Reader (PerkinElmer). […] For IC50 determination, the compounds were tested at sixteen concentrations in duplicate and curve-fitting was performed by non-linear regression analysis using GraphPad Priam.
Target sequence in this assay (Q9NWZ3 whole entry, species assumed): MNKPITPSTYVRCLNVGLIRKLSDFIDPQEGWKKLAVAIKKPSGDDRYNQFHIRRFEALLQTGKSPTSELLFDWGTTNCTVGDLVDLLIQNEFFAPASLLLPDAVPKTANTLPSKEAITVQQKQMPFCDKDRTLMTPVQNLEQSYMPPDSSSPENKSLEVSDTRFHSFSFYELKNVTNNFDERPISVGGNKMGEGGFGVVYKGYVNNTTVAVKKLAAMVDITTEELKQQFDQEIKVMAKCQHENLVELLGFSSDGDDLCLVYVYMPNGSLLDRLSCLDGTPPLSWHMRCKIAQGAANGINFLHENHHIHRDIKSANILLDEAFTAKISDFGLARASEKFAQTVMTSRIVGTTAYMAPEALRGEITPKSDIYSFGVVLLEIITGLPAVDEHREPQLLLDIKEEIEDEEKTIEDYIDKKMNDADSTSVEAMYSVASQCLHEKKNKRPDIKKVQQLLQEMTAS

For assay [2], the target named is T1, IRAK4. Description: IRAK4 Degradation HiBiT Assay. The note with it: HiBiT-tagged Jurkat cells, 4 hrs; for Dmax: Jurkat; for DC50: read-out: Cellular IRAK4 HiBiT: DC50. Background: The HiBiT peptide binds its large partner to form an active luciferase.
Target sequence in this assay (Q9NWZ3 whole entry): as the sequence (Q9NWZ3 whole entry, species assumed) above
Description: Compound dilution series (11-point, 3.16-fold dilutions in DMSO, columns 1-11 and 12-22) at 500× the final required concentrations were prepared in Labcyte LDV 384-well plates (cat. no. LP-0200) using a Labcyte Echo 550 Liquid Handler. The 500× solutions ranged from 5 mM to 0.5 μM (final assay concentration range 10 μM to 0.1 nM). Using the Echo, the 500× solutions were stamped into white, 384-well assay plates (Corning, cat. no. 3570) at 60 nL/well. […] C-terminal HiBiT-tagged Jurkat cells (polyclonal cell line or clone 8D5) were plated at 1×10^6 cells/mL, 30 μL/well (3×10^4 cells/well) in complete RPMI (10% FBS, 1% L-glutamine). Cells were incubated for 4 hrs at 32° C./6% CO2.
Following incubation, 30 uL of complete Nano-Glo HiBiT Lytic Detection Reagent (Nano-Glo HiBiT Lytic Buffer with 1:50 Nano-Glo HiBiT Lytic Substrate and 1:100 LgBiT Protein; Promega cat. no. N3040) was added. Cells were further incubated for 10 min at room temperature (RT). Luminescence units (LU) were read on an EnVision plate reader (Perkin Elmer, 0.1 sec per well). Percent IRAK4 remaining per sample was calculated as follows:
Using Graphpad Prism, % IRAK4 remaining values were plotted as a function of compound concentration.
The mark [3] stands for this setting: read-out: Cellular IRAK4 HiBiT: Dmax, Table 5, multiple runs.
Setting [4] is: read-out: Cellular IRAK4 HiBiT: Dmax, Table 4.

Where two headings read alike, the source gives them in different places.

As usually defined, the IC50 is the concentration that inhibits the measured activity by half. What is called Dmax is the greatest extent of degradation seen. Broadly, the DC50 is the concentration giving 50% degradation. Consider `CNc1cc(-c2ccc3cc(C#N)cnn23)ncc1-c1nnc(C23CCC(NC(=O)[C@H]4C[C@H]4C(=O)N[C@H](C(=O)N4C[C@H](O)C[C@H]4C(=O)N[C@@H](C)c4ccc(-c5scnc5C)cc4)C(C)(C)C)(CC2)CC3)s1` (mixture of isomers) [Example 142, (1RS,2SR)—N1-(4-(5-(6-(3-cyanopyrrolo[1,2-b]pyridazin-7-yl)-4-(methylamino)pyridin-3-yl)-1,3,4-thiadiazol-2-yl)bicyclo[2.2.2]octan-1-yl)-N2—((S)-1-((2S,4R)-4-hydroxy-2-(((S)-1-(4-(4-methylthiazol-5-yl)phenyl)ethyl)carbamoyl)pyrrolidin-1-yl)-3,3-dimethyl-1-oxobutan-2-yl)cyclopropane-1,2-dicarboxamide], for which the 50% inhibitory concentration (IC50) in assay [1] (Table 5, multiple runs) was found to be 1.9 nM. The Dmax in assay [2] (setting [3]) is 115%. In addition, in assay [2] (Table 5, multiple runs), the DC50 is 258 nM.
For `CNc1cc(-c2ccc3cc(C#N)cnn23)ncc1-c1nnc(C23CCC(NC(=O)[C@H]4CC[C@H]4C(=O)N[C@H](C(=O)N4C[C@H](O)C[C@H]4C(=O)N[C@@H](C)c4ccc(-c5scnc5C)cc4)C(C)(C)C)(CC2)CC3)s1` (mixture of isomers) [Example 144, (1RS,2SR)—N1-(4-(5-(6-(3-cyanopyrrolo[1,2-b]pyridazin-7-yl)-4-(methylamino)pyridin-3-yl)-1,3,4-thiadiazol-2-yl)bicyclo[2.2.2]octan-1-yl)-N2—((S)-1-((2S,4R)-4-hydroxy-2-(((S)-1-(4-(4-methylthiazol-5-yl)phenyl)ethyl)carbamoyl)pyrrolidin-1-yl)-3,3-dimethyl-1-oxobutan-2-yl)cyclobutane-1,2-dicarboxamide], in that order: 1.5 nM, 89% and 429 nM.
In the same order, the values of `CNc1cc(-c2ccc3cc(C#N)cnn23)ncc1-c1nnc([C@H]2CC[C@H](NC(=O)[C@H]3CC[C@H]3C(=O)N[C@H](C(=O)N3C[C@H](O)C[C@H]3C(=O)N[C@@H](C)c3ccc(-c4scnc4C)cc3)C(C)(C)C)CC2)s1` (racemic) [Example 143, (1RS,2SR)—N1-((1r,4R)-4-(5-(6-(3-cyanopyrrolo[1,2-b]pyridazin-7-yl)-4-(methylamino)pyridin-3-yl)-1,3,4-thiadiazol-2-yl)cyclohexyl)-N2—((S)-1-((2S,4R)-4-hydroxy-2-(((S)-1-(4-(4-methylthiazol-5-yl)phenyl)ethyl)carbamoyl)pyrrolidin-1-yl)-3,3-dimethyl-1-oxobutan-2-yl)cyclobutane-1,2-dicarboxamide] are 1.6 nM, 37% and 870 nM.
In the same order, the values of `CNc1cc(-c2ccc3cc(C#N)cnn23)ncc1-c1nnc(C2CCC(NC(=O)[C@H]3C[C@H]3C(=O)N[C@H](C(=O)N3C[C@H](O)C[C@H]3C(=O)N[C@@H](C)c3ccc(-c4scnc4C)cc3)C(C)(C)C)CC2)s1` (mixture of isomers) [Example 147, (1RS,2SR)—N1-((1r,4R)-4-(5-(6-(3-cyanopyrrolo[1,2-b]pyridazin-7-yl)-4-(methylamino)pyridin-3-yl)-1,3,4-thiadiazol-2-yl)cyclohexyl)-N2—((S)-1-((2S,4R)-4-hydroxy-2-(((S)-1-(4-(4-methylthiazol-5-yl)phenyl)ethyl)carbamoyl)pyrrolidin-1-yl)-3,3-dimethyl-1-oxobutan-2-yl)cyclopropane-1,2-dicarboxamide] are 1.5 nM, 80% and 508 nM.
On to `N#Cc1cnn2c(-c3cc(NC4CCOCC4)c(-c4nnc(C56CCC(NC(=O)CCOCCOCCNc7cccc8c7C(=O)N(C7CCC(=O)NC7=O)C8=O)(CC5)CC6)s4)cn3)ccc2c1` (centres unmarked) [Example 1, N-(4-(5-(6-(3-cyanopyrrolo[1,2-b]pyridazin-7-yl)-4-((tetrahydro-2H-pyran-4-yl)amino)pyridin-3-yl)-1,3,4-thiadiazol-2-yl)bicyclo[2.2.2]octan-1-yl)-3-(2-(2-((2-(2,6-dioxopiperidin-3-yl)-1,3-dioxoisoindolin-4-yl)amino)ethoxy)ethoxy)propanamide], for which the IC50 in assay [1] (Table 4) is 1.8 nM; in assay [1] (Table 5, multiple runs), 2 nM. Further, the Dmax in assay [2] (setting [4]) was determined as 65%; in assay [2] (setting [3]) it was 60%. Further, the DC50 in assay [2] (Table 4) stood at 23.8 nM; in assay [2] (Table 5, multiple runs), 22.9 nM.
With `N#Cc1cnn2c(-c3cc(NC4CCOCC4)c(-c4nnc(C56CCC(NC(=O)CCOCCOCCOCCNc7cccc8c7C(=O)N(C7CCC(=O)NC7=O)C8=O)(CC5)CC6)s4)cn3)ccc2c1` (centres unmarked) [Example 2, N-(4-(5-(6-(3-cyanopyrrolo[1,2-b]pyridazin-7-yl)-4-((tetrahydro-2H-pyran-4-yl)amino)pyridin-3-yl)-1,3,4-thiadiazol-2-yl)bicyclo[2.2.2]octan-1-yl)-3-(2-(2-(2-((2-(2,6-dioxopiperidin-3-yl)-1,3-dioxoisoindolin-4-yl)amino)ethoxy)ethoxy)ethoxy)propanamide], the half-maximal inhibitory concentration (IC50) in assay [1] (Table 4) is 1.6 nM; in assay [1] (Table 5, multiple runs), 1.8 nM. Also, the Dmax in assay [2] (setting [4]) is 71%; in assay [2] (setting [3]), 75%. For the same molecule, the half-maximal degradation concentration (DC50) in assay [2] (Table 4) came out at 27.8 nM; in assay [2] (Table 5, multiple runs), 27.2 nM.
For `CC(C)Nc1cc(-c2ccc3cc(C#N)cnn23)ncc1-c1nnc([C@H]2CC[C@H](NC(=O)CCOCCOCCNc3cccc4c3C(=O)N(C3CCC(=O)NC3=O)C4=O)CC2)s1` (some centres unmarked) [Example 3, N-((1r,4r)-4-(5-(6-(3-cyanopyrrolo[1,2-b]pyridazin-7-yl)-4-(isopropylamino)pyridin-3-yl)-1,3,4-thiadiazol-2-yl)cyclohexyl)-3-(2-(2-((2-(2,6-dioxopiperidin-3-yl)-1,3-dioxoisoindolin-4-yl)amino)ethoxy)ethoxy)propanamide], the IC50 in assay [1] (Table 4) was determined as 2.3 nM; in assay [1] (Table 5, multiple runs), 1.9 nM. The Dmax was determined as 91% in assay [2] (setting [4]) and 90% in assay [2] (setting [3]). For the same molecule, the DC50 came out at 32 nM in assay [2] (Table 4) and 30.1 nM in assay [2] (Table 5, multiple runs).
`CC(C)Nc1cc(-c2ccc3cc(C#N)cnn23)ncc1-c1nnc([C@H]2CC[C@H](NC(=O)CCOCCOCCOCCNc3cccc4c3C(=O)N(C3CCC(=O)NC3=O)C4=O)CC2)s1` (some centres unmarked) [Example 4, N-((1r,4r)-4-(5-(6-(3-cyanopyrrolo[1,2-b]pyridazin-7-yl)-4-(isopropylamino)pyridin-3-yl)-1,3,4-thiadiazol-2-yl)cyclohexyl)-3-(2-(2-(2-((2-(2,6-dioxopiperidin-3-yl)-1,3-dioxoisoindolin-4-yl)amino)ethoxy)ethoxy)ethoxy)propanamide]: the IC50 in assay [1] (Table 4) was determined as 1.8 nM; in assay [1] (Table 5, multiple runs), 1.7 nM. Moreover, the Dmax was 97% in assay [2] (setting [4]) and 98% in assay [2] (setting [3]). Also, the DC50 in assay [2] (Table 4) was determined as 51.8 nM; in assay [2] (Table 5, multiple runs), 52.5 nM.
For `CNc1cc(-c2ccc3cc(C#N)cnn23)ncc1-c1nnc(C23CCC(NC(=O)C4CCN(c5cccc6c5C(=O)N(C5CCC(=O)NC5=O)C6=O)CC4)(CC2)CC3)s1` (centres unmarked) [Example 136, N-(4-(5-(6-(3-cyanopyrrolo[1,2-b]pyridazin-7-yl)-4-(methylamino)pyridin-3-yl)-1,3,4-thiadiazol-2-yl)bicyclo[2.2.2]octan-1-yl)-1-(2-(2,6-dioxopiperidin-3-yl)-1,3-dioxoisoindolin-4-yl)piperidine-4-carboxamide], the Dmax in assay [2] (setting [3]) worked out at 35%. Also, the half-maximal degradation concentration (DC50) in assay [2] (Table 5, multiple runs) came out at 21.9 nM.
